Test results reported in ChEMBL document CHEMBL1201862, “PubChem BioAssay data set” (2004).
Blank lines part the entries; values can stand above or below the molecule they belong to. Calls of active or inactive are those of the source. Rule as the data show it, for most assays here: actives have a measured IC50 and inactives only a lower limit.

Experiments:
[1] = target: T1, Polyadenylate-binding protein 1 (Homo sapiens, UniProt P11940); assay: PABP poly(A) RNA binding inhibitors, primary screen, biochemical, fluorescence polarization, uHTS (AID 2014)
[2] = target: T2, Eukaryotic translation initiation factor 4H (Homo sapiens, UniProt Q15056); assay: eIF4H inhibition in translation initiation, SAR follow-up (AID 435011); type: functional
[3] = target: T2, Eukaryotic translation initiation factor 4H; assay: human eIF4H binding inhibitors, primary screen, translation initiation inhibitor project, biochemical, uHTS, fluorescence polarization (AID 2012)
[4] = target: T1, Polyadenylate-binding protein 1; assay: PABP inhibition in translation initiation, SAR follow-up (AID 435018); type: functional
[5] = target: Alkaline phosphatase, placental type (Homo sapiens, UniProt P05187); assay: PLAP enzyme inhibitors, confirmation, biochemical, luminescence (AID 1512); type: functional
[6] = target: Glyceraldehyde-3-phosphate dehydrogenase (Homo sapiens, UniProt P04406)
[7] = target: T3, Alkaline phosphatase, tissue-nonspecific isozyme (Homo sapiens, UniProt P05186); assay: human TNAP enzyme inhibitors, SAR follow-up, biochemical, luminescent, dose response (AID 1056)
T3 sequence (P05186 whole entry): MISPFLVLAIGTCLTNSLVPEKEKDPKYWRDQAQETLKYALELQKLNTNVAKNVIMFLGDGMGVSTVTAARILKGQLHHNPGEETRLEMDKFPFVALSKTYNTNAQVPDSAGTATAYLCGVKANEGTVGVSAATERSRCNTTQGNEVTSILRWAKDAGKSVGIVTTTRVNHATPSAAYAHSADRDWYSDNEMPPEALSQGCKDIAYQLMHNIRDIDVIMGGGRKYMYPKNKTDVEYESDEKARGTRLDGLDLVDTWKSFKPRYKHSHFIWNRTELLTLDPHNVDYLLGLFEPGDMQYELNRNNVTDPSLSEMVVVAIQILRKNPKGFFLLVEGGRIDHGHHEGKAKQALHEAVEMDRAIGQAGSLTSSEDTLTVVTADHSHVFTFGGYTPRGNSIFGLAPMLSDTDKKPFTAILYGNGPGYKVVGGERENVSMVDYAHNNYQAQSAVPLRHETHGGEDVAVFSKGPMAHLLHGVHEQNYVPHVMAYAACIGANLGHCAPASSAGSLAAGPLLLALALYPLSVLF

[8] = Luminescence Cell-Based Dose Retest to Confirm Inhibitors of Cancer Stem Cells. [Related pubchem assays (depositor defined):AID2717, AID2721]; type: functional; details: Homo sapiens
Integrin alpha-4 = Integrin alpha-4 (Homo sapiens, UniProt P13612); assay: VLA-4 integrin allosteric ligands, SAR follow-up, cell-based, LIBS antibody binding, flow cytometry (AID 488791); type: functional
[9] = target: T4, Ubiquitin-conjugating enzyme E2 N (Homo sapiens, UniProt P61088); type: functional;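 also: Dose-response confirmation in a TR-FRET assay detecting UBC13-driven polyubiquitin chain formation, inhibition measured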
T4 sequence (P61088 whole entry): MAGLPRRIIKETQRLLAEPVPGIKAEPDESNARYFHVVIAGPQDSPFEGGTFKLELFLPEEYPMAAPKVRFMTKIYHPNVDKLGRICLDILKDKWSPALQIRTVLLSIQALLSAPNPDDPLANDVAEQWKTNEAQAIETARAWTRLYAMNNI

Melanocortin receptor 4 = Melanocortin receptor 4 (Homo sapiens, UniProt P32245); type: functional, cell-based;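 also: Cell-based assay with luminescence read-out, confirmatory dose-response testing for agonist activity of biased ligands at MC4R; human U2OS cells with tagged receptor and beta-arrestin; potency of agonists that increase receptor coupling to beta-arrestin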
INS1 = assay: beta cell apoptosis inhibitors, cytokine rescue, dose response, luminescence, retest (AID 449756); type: functional, cell-based; details: Rattus norvegicus;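 also: cell death triggered by IL-1 beta plus TNF-alpha plus IFN-gamma mixture; protective hits raise ATP signal compared with cytokine alone wells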
Hexokinase = Hexokinase (Trypanosoma brucei, UniProt Q38C41); assay: Confirmation assay for inhibitors of Trypanosoma brucei hexokinase 1-Analogue-first series. [Related pubchem assays (depositor defined):AID1430, AID1632, AID2516, AID2560, AID2579, AID2600, AID449725, AID492951]; type: functional
Sequence of Hexokinase (Q38C41 whole entry): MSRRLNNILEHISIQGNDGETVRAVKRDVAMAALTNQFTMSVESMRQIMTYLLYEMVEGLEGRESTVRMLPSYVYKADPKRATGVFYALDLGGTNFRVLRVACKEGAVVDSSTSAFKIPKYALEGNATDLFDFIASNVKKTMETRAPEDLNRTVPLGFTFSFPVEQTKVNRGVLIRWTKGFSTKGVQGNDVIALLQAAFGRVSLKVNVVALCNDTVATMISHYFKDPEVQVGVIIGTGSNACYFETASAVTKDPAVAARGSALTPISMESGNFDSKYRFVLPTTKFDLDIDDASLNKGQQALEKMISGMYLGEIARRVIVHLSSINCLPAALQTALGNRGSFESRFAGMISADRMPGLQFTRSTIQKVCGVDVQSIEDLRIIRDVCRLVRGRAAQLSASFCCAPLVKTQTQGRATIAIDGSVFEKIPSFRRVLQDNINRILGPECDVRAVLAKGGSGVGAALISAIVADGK

T1 sequence (P11940 whole entry): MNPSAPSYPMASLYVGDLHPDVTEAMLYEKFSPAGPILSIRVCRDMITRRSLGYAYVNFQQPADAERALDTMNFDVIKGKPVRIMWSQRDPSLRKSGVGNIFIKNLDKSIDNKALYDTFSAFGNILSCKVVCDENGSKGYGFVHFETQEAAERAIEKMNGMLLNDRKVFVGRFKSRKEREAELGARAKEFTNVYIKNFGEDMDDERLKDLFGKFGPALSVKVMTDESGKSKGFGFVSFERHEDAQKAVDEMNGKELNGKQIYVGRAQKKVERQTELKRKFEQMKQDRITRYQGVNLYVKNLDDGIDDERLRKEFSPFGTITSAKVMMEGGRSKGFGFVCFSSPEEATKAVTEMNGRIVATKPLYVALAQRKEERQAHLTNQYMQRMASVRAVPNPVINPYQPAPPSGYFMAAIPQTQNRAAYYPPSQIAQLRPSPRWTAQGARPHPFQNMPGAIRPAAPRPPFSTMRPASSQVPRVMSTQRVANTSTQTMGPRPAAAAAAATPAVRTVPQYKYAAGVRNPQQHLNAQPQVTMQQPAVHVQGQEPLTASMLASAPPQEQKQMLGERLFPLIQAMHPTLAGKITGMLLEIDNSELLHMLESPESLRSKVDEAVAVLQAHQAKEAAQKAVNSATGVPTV
Sequence of Integrin alpha-4 (P13612 whole entry): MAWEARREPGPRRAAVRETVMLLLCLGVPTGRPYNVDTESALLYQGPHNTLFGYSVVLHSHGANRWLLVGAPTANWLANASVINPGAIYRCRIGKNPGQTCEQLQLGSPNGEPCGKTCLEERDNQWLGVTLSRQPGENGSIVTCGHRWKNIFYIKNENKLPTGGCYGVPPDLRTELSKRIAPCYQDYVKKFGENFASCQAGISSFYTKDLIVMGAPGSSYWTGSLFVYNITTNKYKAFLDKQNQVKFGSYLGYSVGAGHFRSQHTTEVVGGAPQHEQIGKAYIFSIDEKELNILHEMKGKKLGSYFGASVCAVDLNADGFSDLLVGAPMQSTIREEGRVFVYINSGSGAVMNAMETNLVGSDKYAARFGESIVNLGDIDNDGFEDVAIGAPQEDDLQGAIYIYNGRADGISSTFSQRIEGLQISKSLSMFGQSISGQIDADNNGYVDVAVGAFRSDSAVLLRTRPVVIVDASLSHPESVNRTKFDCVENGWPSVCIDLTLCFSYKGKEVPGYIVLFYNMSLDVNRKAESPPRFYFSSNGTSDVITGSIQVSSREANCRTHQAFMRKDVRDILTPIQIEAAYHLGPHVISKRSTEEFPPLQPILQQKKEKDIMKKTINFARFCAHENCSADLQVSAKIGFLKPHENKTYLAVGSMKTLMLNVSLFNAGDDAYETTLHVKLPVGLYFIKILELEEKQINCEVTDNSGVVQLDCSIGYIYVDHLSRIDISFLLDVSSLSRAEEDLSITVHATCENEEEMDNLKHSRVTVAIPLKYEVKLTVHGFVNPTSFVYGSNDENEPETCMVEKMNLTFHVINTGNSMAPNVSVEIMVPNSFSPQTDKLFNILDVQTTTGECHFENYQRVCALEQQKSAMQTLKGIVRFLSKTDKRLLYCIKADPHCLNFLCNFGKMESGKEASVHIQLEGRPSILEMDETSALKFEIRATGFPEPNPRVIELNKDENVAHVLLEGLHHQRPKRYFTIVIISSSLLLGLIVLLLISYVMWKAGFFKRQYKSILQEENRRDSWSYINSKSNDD
Sequence of Alkaline phosphatase, placental type (P05187 whole entry): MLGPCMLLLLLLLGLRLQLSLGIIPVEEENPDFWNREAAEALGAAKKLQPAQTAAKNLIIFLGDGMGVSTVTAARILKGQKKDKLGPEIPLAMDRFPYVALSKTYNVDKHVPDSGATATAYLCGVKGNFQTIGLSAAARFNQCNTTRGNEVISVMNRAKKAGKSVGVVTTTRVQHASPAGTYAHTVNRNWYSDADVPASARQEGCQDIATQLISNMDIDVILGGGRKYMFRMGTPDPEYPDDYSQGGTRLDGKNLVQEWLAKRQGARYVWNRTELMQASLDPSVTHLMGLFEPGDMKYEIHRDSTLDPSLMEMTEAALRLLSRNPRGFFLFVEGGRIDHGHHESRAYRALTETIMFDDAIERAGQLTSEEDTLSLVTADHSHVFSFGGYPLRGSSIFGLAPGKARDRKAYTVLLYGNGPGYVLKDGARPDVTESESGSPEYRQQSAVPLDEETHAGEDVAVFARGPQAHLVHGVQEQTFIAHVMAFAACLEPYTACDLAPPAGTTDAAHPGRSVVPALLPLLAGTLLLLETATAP
Sequence of Melanocortin receptor 4 (P32245 whole entry): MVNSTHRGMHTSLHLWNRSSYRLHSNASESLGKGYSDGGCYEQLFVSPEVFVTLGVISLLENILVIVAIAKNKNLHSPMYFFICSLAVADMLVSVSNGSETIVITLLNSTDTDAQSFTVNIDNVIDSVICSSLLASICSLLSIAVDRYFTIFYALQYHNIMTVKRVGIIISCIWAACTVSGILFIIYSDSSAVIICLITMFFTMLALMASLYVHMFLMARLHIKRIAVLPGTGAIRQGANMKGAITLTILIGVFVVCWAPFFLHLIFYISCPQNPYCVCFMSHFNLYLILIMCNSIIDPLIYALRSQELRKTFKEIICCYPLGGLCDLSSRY
Sequence of Glyceraldehyde-3-phosphate dehydrogenase (P04406 whole entry): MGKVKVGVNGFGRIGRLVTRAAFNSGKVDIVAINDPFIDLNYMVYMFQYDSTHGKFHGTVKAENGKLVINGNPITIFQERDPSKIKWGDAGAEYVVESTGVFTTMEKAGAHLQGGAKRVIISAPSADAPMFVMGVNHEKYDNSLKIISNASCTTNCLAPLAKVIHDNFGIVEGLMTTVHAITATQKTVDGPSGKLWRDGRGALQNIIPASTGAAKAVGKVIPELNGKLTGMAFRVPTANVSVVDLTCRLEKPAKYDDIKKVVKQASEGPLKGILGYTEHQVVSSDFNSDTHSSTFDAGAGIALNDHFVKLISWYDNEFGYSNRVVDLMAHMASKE

SMILES: COC(=O)c1c(Sc2ccccc2)c2ccccc2n1C
IC50 [1]: 2.76 µM (active)
IC50 [2]: 4.23 µM (active)
IC50 [3]: > 100 µM (inactive)
IC50 [4]: 13.8 µM (active)

IC50 [5]: > 100 µM (inactive)
IC50 [6]: > 100 µM (not active)
IC50 [7]: 4.7 µM (active)
SMILES: O=C(CSc1n[nH]c(-c2ccccc2Cl)n1)Nc1ccccc1F

SMILES: CN(C)CCOc1ccc(-c2c(-c3ccccc3)sc3ccccc23)cc1
AC50 [8]: 2.93 µM (active)
EC50 (Integrin alpha-4): > 30 µM (inactive)
IC50 [9]: > 20 µM (inactive)
EC50 (Melanocortin receptor 4): > 89.2 µM (inactive)
AC50 (INS1): 6.82 µM (active)

SMILES: Cn1c2ccccc2c(=O)n1-c1ccccc1
IC50 (Hexokinase): > 25 µM (inactive)
